ChEMBL document CHEMBL3112510, “Optimization, pharmacophore modeling and 3D-QSAR studies of sipholanes as breast cancer migration and proliferation inhibitors” (Eur J Med Chem, 2014)

How the values were obtained:
MDA-MB-231 [1] = assay: Antiproliferative activity against human MDA-MB-231 cells after 72 hrs by MTT assay; conditions: MDA-MB-231, 72 h
MDA-MB-231 [2] = assay: Antimigratory activity in human MDA-MB-231 cells after 24 hrs by wound healing assay; conditions: MDA-MB-231, 24 h
MCF7 = assay: cells; conditions: Homo sapiens, MCF7, 72 h

Row | IC50 (MDA-MB-231 [1]) [µM] | IC50 (MDA-MB-231 [2]) [µM] | IC50 (MDA-MB-231 [2]; read-out: pIC50 (converted)) [µM] | IC50 (MCF7) [µM] | SMILES
1 | 42.7 | > 50 | 52.7 | 46.8 | CC1=CC[C@H]2[C@H](CC[C@]2(C)O)C(C)(C)[C@@H]1CC[C@H]1[C@]2(C)CC/C(=N/O)C(C)(C)O[C@H]2CC[C@@]1(C)O
2 | 18.4 | 7.2 | 7.19 | 23.1 | CC1=CC[C@H]2[C@@H]1CC=C(C)[C@@H](CC[C@H]1[C@]3(C)CC[C@H](OC(=O)c4ccccc4)C(C)(C)O[C@H]3CC[C@@]1(C)O)C2(C)C
3 | 27.4 | 28.5 | 28.5 | 25.6 | CC1=CC[C@H]2[C@H](CC[C@]2(C)O)C(C)(C)[C@@H]1CC[C@H]1[C@]2(C)CC/C(=N/OC(=O)c3ccccc3)C(C)(C)O[C@H]2CC[C@@]1(C)O
4 | > 50 | > 50 | 77.8 | > 50 | CC1(C)O[C@H]2CC[C@@](C)(O)[C@@H](CC[C@@H]3C(CO)=CC[C@H]4[C@H](CC[C@]4(C)O)C3(C)C)[C@]2(C)CCC1=O
5 | > 50 | > 50 | 36.2 | > 50 | CC1(C)O[C@H]2CC[C@@](C)(O)[C@@H](CC[C@H]3C(C)(C)[C@@]4(O)CC[C@](C)(O)[C@H]4C[C@H]4O[C@]43C)[C@]2(C)CC[C@@H]1O
6 | 38.2 | 31.4 | 31.4 | > 50 | CC1=CC[C@H]2[C@H](CC[C@]2(C)O)C(C)(C)[C@@H]1CC[C@H]1[C@]2(C)CC/C(=N/OCc3ccccc3)C(C)(C)O[C@H]2CC[C@@]1(C)O
7 | > 50 | > 50 | 59 | 21.8 | CC1=C(CC[C@H]2[C@]3(C)CC[C@H](O)C(C)(C)O[C@H]3CC[C@@]2(C)O)[C@](C)(C/C=C/C(C)(C)O)[C@H](O)CC1
8 | 10.3 | 5.3 | 5.3 | 24.1 | CC1=CC[C@H]2[C@H](CC[C@]2(C)O)C(C)(C)[C@@H]1CC[C@H]1[C@]2(C)CC[C@H](OC(=O)c3ccc(Cl)cc3)C(C)(C)O[C@H]2CC[C@@]1(C)O
9 | > 50 | 47.5 | 47.5 | > 50 | C[C@H]1C(=O)C[C@H]2[C@H](CC[C@]2(C)O)C(C)(C)[C@@H]1CC[C@H]1[C@]2(C)CC[C@H](O)C(C)(C)O[C@H]2CC[C@@]1(C)O
10 | 33.4 | 11.8 | 11.8 | > 50 | CC1=CC[C@H]2[C@H](CC[C@]2(C)O)C(C)(C)[C@@H]1CC[C@H]1[C@]2(C)CC[C@H](OC(=O)c3ccc(C)cc3)C(C)(C)O[C@H]2CC[C@@]1(C)O
11 | 38 | 16.8 | – | 47.9 | CC(=O)O[C@H]1CC[C@]2(C)[C@H](CC[C@@](C)(O)[C@H]2CC[C@@H]2C(C)=CC[C@H]3[C@H](CC[C@]3(C)O)C2(C)C)OC1(C)C
12 | > 50 | 42.6 | 42.6 | > 50 | CC1(C)O[C@H]2CC[C@@](C)(O)[C@@H](CC[C@@H]3C(C=O)=CC[C@H]4[C@H](CC[C@]4(C)O)C3(C)C)[C@]2(C)CCC1=O
13 | 27.9 | 18 | 18 | > 50 | CC1=CC[C@H]2[C@H](CC[C@]2(C)O)C(C)(C)[C@@H]1CC[C@H]1[C@]2(C)CC[C@H](OC(=O)CCC(=O)O)C(C)(C)O[C@H]2CC[C@@]1(C)O
14 | > 50 | 38.3 | 38.3 | > 50 | C[C@H]1C(=O)C[C@@H]2[C@@](C)(O)CC[C@]2(O)C(C)(C)[C@@H]1CC[C@H]1[C@]2(C)CCC(=O)C(C)(C)O[C@H]2CC[C@@]1(C)O
15 | > 50 | 35.3 | 35.3 | > 50 | CC1=CC[C@H]2[C@@H]1CC=C(C)[C@@H](CC[C@H]1[C@]3(C)CC[C@H](O)C(C)(C)O[C@H]3CC[C@@]1(C)O)C2(C)C
16 | > 50 | > 50 | 69 | > 50 | C[C@@H]1C(=O)C[C@H]2[C@@H](/C1=C/C[C@H]1[C@]3(C)CC[C@H](O)C(C)(C)O[C@H]3CC[C@@]1(C)O)C(C)(C)CC[C@]2(C)O
17 | 12.7 | 5.9 | – | 22 | CC1=CC[C@H]2[C@@H]1CC=C(C)[C@@H](CC[C@H]1[C@]3(C)CC[C@H](OC(=O)c4ccc(Cl)cc4)C(C)(C)O[C@H]3CC[C@@]1(C)O)C2(C)C
18 | 19.1 | 9.5 | 9.51 | > 50 | CC1=CC[C@H]2[C@@H]1CC=C(C)[C@@H](CC[C@H]1[C@]3(C)CC[C@H](OC(=O)c4ccncc4)C(C)(C)O[C@H]3CC[C@@]1(C)O)C2(C)C

Row | IC50 (MDA-MB-231 [1]) [µM] | IC50 (MDA-MB-231 [2]) [µM] | IC50 (MDA-MB-231 [2]; read-out: pIC50 (converted)) [µM] | IC50 (MCF7) [µM] | SMILES
19 | 29.6 | 21 | – | > 50 | CC1=CC[C@H]2[C@@H]1CC=C(C)[C@@H](CC[C@H]1[C@]3(C)CC[C@H](OC(=O)CCC(=O)O)C(C)(C)O[C@H]3CC[C@@]1(C)O)C2(C)C
20 | > 50 | 28 | 28 | > 50 | C[C@@H]1CC[C@H]2[C@@H](/C1=C/C[C@H]1[C@]3(C)CCC(=O)C(C)(C)O[C@H]3CC[C@@]1(C)O)C(C)(C)CC[C@]2(C)O
21 | > 50 | > 50 | 67.3 | > 50 | CC(C)=CCC[C@@]1(C)C(CC[C@H]2[C@]3(C)CC[C@H](O)C(C)(C)O[C@H]3CC[C@@]2(C)O)=C(C)CC[C@H]1O [SIPHONELLINOL D]
22 | > 50 | 46.7 | 46.7 | > 50 | CC1=CC[C@H]2[C@@H]1CC=C(C)[C@@H](CCC1=C(C)CC[C@@H]3OC(C)(C)[C@@H](O)CC[C@@]13C)C2(C)C
23 | 40.3 | 13.9 | 13.9 | 24.5 | CC1=CC[C@H]2[C@H](CC[C@]2(C)O)C(C)(C)[C@@H]1CC[C@H]1[C@]2(C)CC[C@H](OC(=O)NCc3ccccc3)C(C)(C)O[C@H]2CC[C@@]1(C)O
24 | > 50 | > 50 | 84.9 | > 50 | CC1=C(CC[C@H]2[C@]3(C)CC[C@H](O)C(C)(C)O[C@H]3CC[C@@]2(C)O)[C@@H]2[C@H](CC1=O)[C@@](C)(O)CCC2(C)C
25 | > 50 | > 50 | 92.9 | > 50 | CC1(C)CC[C@](C)(O)[C@H]2C[C@H](O)[C@]3(C)O[C@]3(CC[C@H]3[C@]4(C)CC[C@H](O)C(C)(C)O[C@H]4CC[C@@]3(C)O)[C@H]21
26 | > 50 | 37.5 | 37.5 | 44.5 | CC1=CCC2C(CC[C@@]2(C)O)C(C)(C)C1CC[C@@H]1[C@@]2(C)CC[C@@H](O)C(C)(C)O[C@@H]2CC[C@]1(C)O (some centres undefined) [SIPHOLENOL A]
27 | 35.7 | 13.4 | 13.4 | > 50 | CC1=CC[C@H]2[C@@H]1CC=C(C)[C@@H](CC[C@H]1[C@]3(C)CC[C@H](OCc4ccccc4)C(C)(C)O[C@H]3CC[C@@]1(C)O)C2(C)C
28 | 47.1 | 18 | – | > 50 | CC1=CC[C@H]2[C@H](CC[C@]2(C)O)C(C)(C)[C@@H]1CC[C@H]1[C@]2(C)CC[C@H](OC(=O)NS(=O)(=O)c3ccc(C)cc3)C(C)(C)O[C@H]2CC[C@@]1(C)O
29 | > 50 | 33 | 33 | > 50 | CC1(C)O[C@H]2CC[C@@](C)(O)[C@@H](CC[C@H]3C(C)(C)[C@@]4(O)CC[C@](C)(O)[C@H]4C[C@H]4O[C@]43C)[C@]2(C)CCC1=O
30 | 26.2 | 20.3 | 20.3 | 39.2 | CC(=O)O[C@H]1CC[C@]2(C)[C@H](CC[C@@](C)(O)[C@H]2CC[C@@H]2C(C)=CC[C@H]3[C@H](CC[C@]3(C)OC(C)=O)C2(C)C)OC1(C)C
31 | > 50 | 45 | 45 | 39.8 | CC1=C(CC[C@H]2[C@]3(C)CC[C@H](O)C(C)(C)O[C@H]3CC[C@@]2(C)O)[C@@H]2[C@H](C[C@H]1C(=O)O)[C@@](C)(O)CCC2(C)C
32 | 39.2 | 16 | 16 | 43.5 | CC(=O)O[C@H]1CC[C@]2(C)[C@H](CC[C@@](C)(O)[C@H]2CC[C@@H]2C(C)=CC[C@@H]3C(C)=CC[C@@H]3C2(C)C)OC1(C)C
33 | > 50 | 48 | 48 | > 50 | CC1=CC[C@H]2[C@H](CC[C@]2(C)O)C(C)(C)[C@@H]1CC[C@H]1[C@]2(C)CC[C@@H](O)O[C@H]2CC[C@@]1(C)O
34 | > 50 | > 50 | 87.5 | > 50 | CC1(C)O[C@H]2CC[C@@](C)(O)[C@@H](CC[C@@H]3C(CO)=CC[C@H]4[C@H](CC[C@]4(C)O)C3(C)C)[C@]2(C)CC[C@@H]1O
35 | 29.1 | 12.2 | 12.2 | > 50 | CC1=CC[C@H]2[C@H](CC[C@]2(C)O)C(C)(C)[C@@H]1CC[C@H]1[C@]2(C)CC[C@H](OCc3ccccc3)C(C)(C)O[C@H]2CC[C@@]1(C)O

Row | SMILES | IC50 (MDA-MB-231 [1]) [µM] | IC50 (MDA-MB-231 [2]) [µM] | IC50 (MDA-MB-231 [2]; read-out: pIC50 (converted)) [µM] | IC50 (MCF7) [µM]
36 | C=C(C)C(CC[C@@]1(C)C(CC[C@H]2[C@]3(C)CC[C@H](O)C(C)(C)O[C@H]3CC[C@@]2(C)O)=C(C)CC[C@H]1O)OO (some centres undefined) [SIPHONELLINOL E] | > 50 | 39 | 39 | 31.2
37 | CC1=C(CC[C@H]2[C@]3(C)CC[C@H](O)C(C)(C)O[C@H]3CC[C@@]2(C)O)[C@](C)(C/C=C/C(C)(C)OO)[C@H](O)CC1 | > 50 | > 50 | 54 | 27.4
